Measured values taken from PubChem BioAssay AID192 (DTP/NCI, 2004).
“And” between values parts separate entries of the source, which are not always exact repeats. Equal entries are not always repeated. Inconclusive results and toxic doses are left out.

System: BDF1 mice, B16 melanoma ip, median survival T/C
Experiment: NCI In Vivo Anticancer Drug Screen. Data for tumor model B16 Melanoma (intraperitoneal) in B6D2F1 (BDF1) mice
Conditions: endpoint: median survival time, higher = longer survival
Procedure, shortened: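 Vehicle-treated animals serve as the reference (C); treated animals (T) are scored for survival or tumor size after tumor transplantation.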

[1] = dose: 0.5 mg/kg/injection, schedule: Q01DX009 (ip), vehicle: saline
[2] = dose: 1.0 mg/kg/injection, schedule: Q01DX009 (ip), vehicle: saline
[3] = dose: 2.0 mg/kg/injection, schedule: Q01DX009 (ip), vehicle: saline
[4] = dose: 4.0 mg/kg/injection, schedule: Q01DX009 (ip), vehicle: saline
[5] = dose: 25.0 mg/kg/injection, schedule: Q01DX009 (ip), vehicle: Klucel (hydroxypropylcellulose) (HPC)
[6] = dose: 50.0 mg/kg/injection, schedule: Q01DX009 (ip), vehicle: Klucel (hydroxypropylcellulose) (HPC)
[7] = dose: 100.0 mg/kg/injection, schedule: Q01DX009 (ip), vehicle: Klucel (hydroxypropylcellulose) (HPC)
[8] = dose: 200.0 mg/kg/injection, schedule: Q01DX009 (ip), vehicle: Klucel (hydroxypropylcellulose) (HPC)
[9] = dose: 50.0 mg/kg/injection, schedule: Q01DX009 (ip), vehicle: saline with Tween-80
[10] = dose: 100.0 mg/kg/injection, schedule: Q01DX009 (ip), vehicle: saline with Tween-80
[11] = dose: 200.0 mg/kg/injection, schedule: Q01DX009 (ip), vehicle: saline with Tween-80
[12] = dose: 400.0 mg/kg/injection, schedule: Q01DX009 (ip), vehicle: Klucel (hydroxypropylcellulose) (HPC)
[13] = dose: 400.0 mg/kg/injection, schedule: Q01DX009 (ip), vehicle: saline with Tween-80
[14] = dose: 100.0 mg/kg/injection, schedule: Q01DX009 (ip), vehicle: saline
[15] = dose: 200.0 mg/kg/injection, schedule: Q01DX009 (ip), vehicle: saline
[16] = dose: 400.0 mg/kg/injection, schedule: Q01DX009 (ip), vehicle: saline

COCCOC1=C(N2CC2)C(=O)C(OCCOC)=C(N2CC2)C1=O
T/C [1]: 102 % of control and 123 % of control | T/C [2]: 110 % of control | T/C [3]: 94 % of control | T/C [4]: 150 % of control

CCCCCCCCCCCCCC[n+]1ccccc1
T/C (dose: 0.06 mg/kg/injection, schedule: Q01DX009 (ip), vehicle: saline with Tween-80): 86 % of control and 89 % of control | T/C (dose: 0.13 mg/kg/injection, schedule: Q01DX009 (ip), vehicle: saline with Tween-80): 90 % of control | T/C (dose: 0.25 mg/kg/injection, schedule: Q01DX009 (ip), vehicle: saline with Tween-80): 86 % of control | T/C (dose: 8.0 micrograms/kg/injection, schedule: Q01DX009 (ip), vehicle: saline): 88 % of control | T/C (dose: 15.0 micrograms/kg/injection, schedule: Q01DX009 (ip), vehicle: saline): 91 % of control | T/C (dose: 30.0 micrograms/kg/injection, schedule: Q01DX009 (ip), vehicle: saline): 94 % of control | T/C (dose: 60.0 micrograms/kg/injection, schedule: Q01DX009 (ip), vehicle: saline): 88 % of control

CCNC(Cc1ccccc1)c1ccc(OC)cc1 (stereo not given)
T/C (dose: 12.5 mg/kg/injection, schedule: Q01DX009 (ip), vehicle: Klucel (hydroxypropylcellulose) (HPC)): 106 % of control | T/C [5]: 100 % of control | T/C [6]: 113 % of control

O=[N+]([O-])c1ccc2nc(-c3ccccc3)c(-c3ccccc3)nc2c1
T/C [7]: 102 % of control | T/C [8]: 88 % of control

COc1ccc(/C=C(\C)[N+](=O)[O-])cc1OC
T/C (dose: 12.5 mg/kg/injection, schedule: Q01DX009 (ip), vehicle: other): 88 % of control | T/C (dose: 25.0 mg/kg/injection, schedule: Q01DX009 (ip), vehicle: other): 93 % of control

OC1CC2CCC(C1)N2CCCN1c2ccccc2Sc2ccc(Cl)cc21 (stereo not given)
T/C (dose: 25.0 mg/kg/injection, schedule: Q04DX003 (ip), vehicle: saline): 97 % of control | T/C (dose: 50.0 mg/kg/injection, schedule: Q04DX003 (ip), vehicle: saline): 90 % of control | T/C (dose: 100.0 mg/kg/injection, schedule: Q04DX003 (ip), vehicle: saline): 93 % of control | T/C (dose: 200.0 mg/kg/injection, schedule: Q04DX003 (ip), vehicle: saline): 88 % of control

C[C@]12CC[C@H](O)C[C@@H]1CC[C@@H]1[C@@H]2C(=O)C[C@@]2(C)[C@H]1CC[C@]2(O)C(=O)CBr
T/C [6]: 90 % of control | T/C [9]: 100 % of control | T/C [7]: 93 % of control | T/C [10]: 94 % of control | T/C [11]: 91 % of control

Oc1ccccc1C(Nc1nc2ccccc2s1)c1ccc2cccnc2c1O (stereo not given)
T/C [5]: 114 % of control | T/C [6]: 105 % of control and 119 % of control (2×) | T/C (dose: 75.0 mg/kg/injection, schedule: Q01DX009 (ip), vehicle: Klucel (hydroxypropylcellulose) (HPC)): 107 % of control | T/C [7]: 110 % of control and 119 % of control | T/C (dose: 150.0 mg/kg/injection, schedule: Q01DX009 (ip), vehicle: Klucel (hydroxypropylcellulose) (HPC)): 97 % of control | T/C [8]: 124 % of control | T/C [12]: 152 % of control

C/C=C(\C)c1cc(=O)c2c(C)cc3c(c2o1)C(=O)c1c(O)c(C2CC(C)(N(C)C)C(O)C(C)O2)cc(C2CC(N(C)C)C(O)C(C)O2)c1C3=O (stereo not given)
T/C (dose: 0.5 mg/kg/injection, schedule: Q01DX009 (ip), vehicle: Klucel (hydroxypropylcellulose) (HPC)): 104 % of control | T/C (dose: 31.0 micrograms/kg/injection, schedule: Q01DX009 (ip), vehicle: saline): 102 % of control | T/C (dose: 39.06 micrograms/kg/injection, schedule: Q01DX009 (ip), vehicle: saline): 123 % of control | T/C (dose: 62.0 micrograms/kg/injection, schedule: Q01DX009 (ip), vehicle: saline): 113 % of control | T/C (dose: 156.0 micrograms/kg/injection, schedule: Q01DX009 (ip), vehicle: saline): 118 % of control | T/C (dose: 250.0 micrograms/kg/injection, schedule: Q01DX009 (ip), vehicle: saline): 105 % of control | T/C (dose: 312.5 micrograms/kg/injection, schedule: Q01DX009 (ip), vehicle: saline): 122 % of control | T/C (dose: 625.0 micrograms/kg/injection, schedule: Q01DX009 (ip), vehicle: saline): 94 % of control and 100 % of control

O=C1c2ccccc2C(=O)N1CC[P+](c1ccccc1)(c1ccccc1)c1ccccc1
T/C (dose: 1.56 mg/kg/injection, schedule: Q01DX009 (ip), vehicle: water): 98 % of control | T/C (dose: 3.13 mg/kg/injection, schedule: Q01DX009 (ip), vehicle: water): 100 % of control | T/C (dose: 6.25 mg/kg/injection, schedule: Q01DX009 (ip), vehicle: water): 109 % of control | T/C (dose: 12.5 mg/kg/injection, schedule: Q01DX009 (ip), vehicle: water): 107 % of control

CCC(C)C(NC(=O)OC(C)(C)c1ccc(-c2ccccc2)cc1)C(=O)O (stereo not given)
T/C [9]: 94 % of control | T/C [10]: 94 % of control | T/C [11]: 91 % of control

CC(C)CC(Br)C(=O)NCC(=O)O (stereo not given)
T/C (dose: 25.0 mg/kg/injection, schedule: Q01DX009 (ip), vehicle: saline with Tween-80): 95 % of control | T/C [9]: 95 % of control

C1CN(P2(N3CC3)=NP(N3CC3)(N3CC3)=NP(N3CC3)(N3CC3)=N2)CCO1 (stereo not given)
T/C (dose: 0.25 mg/kg/injection, schedule: Q01DX009 (ip), vehicle: saline): 101 % of control | T/C [1]: 117 % of control | T/C [2]: 117 % of control | T/C (dose: 1.0 mg/kg/injection, schedule: Q02DX009 (ip), vehicle: saline): 98 % of control and 104 % of control | T/C [3]: 120 % of control | T/C (dose: 2.0 mg/kg/injection, schedule: Q02DX009 (ip), vehicle: saline): 98 % of control and 121 % of control | T/C (dose: 3.13 mg/kg/injection, schedule: Q01DX009 (ip), vehicle: saline): 111 % of control and 112 % of control | T/C (dose: 3.13 mg/kg/injection, schedule: Q02DX009 (ip), vehicle: saline): 110 % of control and 115 % of control | T/C [4]: 116 % of control | T/C (dose: 4.0 mg/kg/injection, schedule: Q02DX009 (ip), vehicle: saline): 106 % of control and 122 % of control | T/C (dose: 6.25 mg/kg/injection, schedule: Q02DX009 (ip), vehicle: saline): 93 % of control | T/C (dose: 8.0 mg/kg/injection, schedule: Q02DX009 (ip), vehicle: saline): 108 % of control | T/C (dose: 12.5 mg/kg/injection, schedule: Q02DX009 (ip), vehicle: saline): 154 % of control and 156 % of control | T/C (dose: 16.0 mg/kg/injection, schedule: Q02DX009 (ip), vehicle: saline): 151 % of control and 171 % of control | T/C (dose: 25.0 mg/kg/injection, schedule: Q02DX009 (ip), vehicle: saline): 164 % of control and 186 % of control and 200 % of control

O=C(/C=C/c1ccccc1)CC(O)(C(F)(F)F)C(F)(F)F
T/C (dose: 100.0 mg/kg/injection, schedule: Q04DX003 (sc), vehicle: olive oil, sesame oil, peanut oil): 90 % of control | T/C (dose: 200.0 mg/kg/injection, schedule: Q04DX003 (sc), vehicle: olive oil, sesame oil, peanut oil): 95 % of control | T/C (dose: 400.0 mg/kg/injection, schedule: Q04DX003 (sc), vehicle: olive oil, sesame oil, peanut oil): 90 % of control

CN(CC(=O)NC(Cc1c[nH]c2ccccc12)C(=O)O)C(=O)OCc1ccccc1 (stereo not given)
T/C [9]: 113 % of control | T/C [10]: 106 % of control | T/C [11]: 104 % of control | T/C [13]: 100 % of control

COc1ccc(C(C#N)CC(=O)c2ccc3c(c2)OCO3)cc1OC (stereo not given)
T/C [14]: 103 % of control | T/C [15]: 100 % of control | T/C [16]: 100 % of control

CCOC(=O)CC(=O)c1ccccc1F
T/C [7]: 99 % of control | T/C [8]: 102 % of control | T/C [12]: 106 % of control

CNc1ccccc1C(N)=O
T/C [7]: 94 % of control | T/C [8]: 100 % of control

NC(=O)C(O)C(O)C(O)C(O)C(N)=O (stereo not given)
T/C [14]: 106 % of control | T/C [15]: 100 % of control

Cn1c[n+](C)cc1C(=O)[O-]
T/C [14]: 115 % of control | T/C [15]: 115 % of control | T/C [16]: 109 % of control

NNC(=O)c1cccc(C(=O)NN)c1
T/C [10]: 97 % of control | T/C [11]: 100 % of control | T/C [13]: 97 % of control

CCNCCC#N
T/C (dose: 80.0 mg/kg/injection, schedule: Q01DX009 (ip), vehicle: saline): 113 % of control | T/C (dose: 160.0 mg/kg/injection, schedule: Q01DX009 (ip), vehicle: saline): 119 % of control | T/C (dose: 320.0 mg/kg/injection, schedule: Q01DX009 (ip), vehicle: saline): 105 % of control

OCCNCc1ccc(Cl)cc1
T/C [9]: 104 % of control | T/C [10]: 109 % of control | T/C [11]: 103 % of control
